Test results from patent US20160194358A1, “LINEAR PEPTIDE ANTIBIOTCS” (priority 2013, published 2016).
In brackets after ≈: the same amount, converted by molar mass. Read-outs that look alike come from different tables or passages of the source. *1 amine or outer side, *2 acyl side, *3 side chain or, on linkers, in order; H or OH if unused. Where a SMILES comes first, the peptide text is derived from it. [ ]: non-standard residue; d: D form. The star is where a group is joined. boroAla((+)-pinanediol) = C[C@H](N*)B1O[C@@H]2C[C@@H]3C[C@@H](C3(C)C)[C@]2(C)O1; Benzoyl(4-(4-Cl-Ph)) = O=C(c1ccc(-c2ccc(Cl)cc2)cc1)*; Ethanesulfonyl(2-NHDecyl) = CCCCCCCCCCNCCS(=O)(=O)*; Propanoyl(3-decylamino) = CCCCCCCCCCNCCC(=O)*; X18 = CCCCc1ccc(-c2ccc(S(=O)(=O)*)cn2)cc1; X27 = CCCCCCCCN1CCN([*:1])C(C(=O)[*:2])C1; X32 = CCCCCCN1CCN([*:1])C(C(=O)[*:2])C1; X30 = CCCCc1ccc(-c2ncc(C(=O)*)cn2)cc1; AlaCOCOOMe = COC(=O)C(=O)[C@H](C)N*; X25 = C[C@H](N*)C(=O)c1ncc(C#N)o1; X26 = CCCCCCCCc1ccc(C(=O)*)c(C)c1; X29 = CCCCCCCCCCN(C)CCS(=O)(=O)*; X20 = CC(N*)C(=O)C(F)(F)C(=O)O; X22 = C[C@H](N*)C(=O)C(=O)O; Decanoyl = CCCCCCCCCC(=O)*; X17 = CCCCCCCCCNCCCC(=O)*; X7 = C[C@H](N*)C(=O)C1CO1; boroAla = C[C@H](N*)B(O)O; Dab = NCC[C@H](N)C(=O)O; Dap = NC[C@H](N)C(=O)O

Key:
[1] = system: Escherichia coli strain MC4100 IMP-4213, which harbors an LptD mutation; details: E. coli MC4100 IMP-4213; 35° C., 22 hours
Procedure: (§1) In vitro antimicrobial activity of each compound was determined by measuring minimal inhibitor concentrations (MICs) using the broth micro-dilution technique as approved by the Clinical and Laboratory Standards Institute (CLSI). Antibacterial activity was measure against two strains of bacteria: 1) methicillin resistant Staphylococcus aureus (MRSA) strain USA300 (NRS384) and 2) Escherichia coli strain MC4100 IMP-4213, which harbors an LptD mutation. Bacterial inocula were prepared by scraping cells into 1 mL of testing media (cation adjusted Mueller Hinton Broth supplemented with 0.002% v/v Tween-80) and diluting to a final OD600nm of 0.01.
(§2) Test compounds were prepared in DMSO at a concentration of 10 mg/ml. These compound stocks were diluted into testing media at a concentration of 64 μg/ml and 9 serial 1:2 dilutions were made in the same media, in 96-well U bottom microtiter dishes. Bacterial inocula were added to the two fold serial dilutions of test compounds to a final density of OD OD600nm of 0.0005 and incubated stationarily at 35° C. for 22 hours, after which the plates were examined visually.

[2] = system: methicillin resistant Staphylococcus aureus (MRSA) strain USA300 (NRS384)
Procedure: as §1, §2

[3] = MRSA USA300 (NRS384), 35° C., 22 hours

Row | SMILES | MIC (μg/mL) E. coli [1] [µg/mL] | MIC (μg/mL) S. aureus [2, 3] [µg/mL] | MIC (μg/mL) S. aureus ([2]; USA300, 22 h) [µg/mL]
1 | C[C@H](NC(=O)[C@@H](NC(=O)[C@H](CN)NC(=O)c1ccc(-c2ccc(Cl)cc2)cc1)[C@@H](C)O)C(=O)N[C@@H](CCCCN)C(=O)N[C@@H](C)C(=O)c1ncc(C#N)o1 [Compound 266] ({Benzoyl(4-(4-Cl-Ph))}-[Dap]TAK-X25) | 16 (≈ 20.9 µM) | 23 (≈ 30 µM) | –
2 | CCCCCCCCCCNCCC(=O)N[C@@H](CCCCN)C(=O)N[C@H](C(=O)N[C@@H](C)C(=O)N[C@@H](CN)C(=O)N[C@@H](C)C(=O)C(=O)OC)[C@@H](C)O [Compound 256] ({Propanoyl(3-decylamino)}-KTA[Dap]-AlaCOCOOMe) | >64 | – | 10 (≈ 13.7 µM)
3 | CCCCc1ccc(-c2ccc(S(=O)(=O)N[C@@H](CCN)C(=O)N[C@H](C(=O)N[C@@H](C)C(=O)N[C@@H](CCCCN)C(=O)N[C@@H](C)B(O)O)[C@@H](C)O)cn2)cc1 [Compound 233] (X18-[Dab]TAK-boroAla) | 8 (≈ 10.5 µM) | 2 (≈ 2.62 µM) | –
4 | CCCCCCCCCC(=O)NCC(=O)N[C@H](C(=O)N[C@@H](C)C(=O)N[C@@H](CCCCN)C(=O)N[C@@H](C)B1O[C@@H]2C[C@@H]3C[C@@H](C3(C)C)[C@]2(C)O1)[C@@H](C)O [Compound 258] (Decanoyl-GTAK-{boroAla((+)-pinanediol)}) | >64 | 8 (≈ 10.9 µM) | –
5 | CCCCCCCCc1ccc(C(=O)N[C@@H](CCN)C(=O)N[C@H](C(=O)N[C@@H](C)C(=O)N[C@@H](CCCCN)C(=O)N[C@@H](C)B2O[C@@H]3C[C@@H]4C[C@@H](C4(C)C)[C@]3(C)O2)[C@@H](C)O)c(C)c1 [Compound 273] (X26-[Dab]TAK-{boroAla((+)-pinanediol)}) | 0.13 (≈ 0.152 µM) | 0.13 (≈ 0.152 µM) | –
6 | CCCCCCCCCCNCCC(=O)N[C@@H](CCN)C(=O)N[C@H](C(=O)N[C@@H](C)C(=O)N[C@@H](CCCCN)C(=O)N[C@@H](C)B(O)O)[C@@H](C)O [Compound 219] ({Propanoyl(3-decylamino)}-[Dab]TAK-boroAla) | 16 (≈ 22.8 µM) | – | 1 (≈ 1.43 µM)
7 | CCCCc1ccc(-c2ncc(C(=O)N[C@@H](CCN)C(=O)N[C@H](C(=O)N[C@@H](C)C(=O)N[C@@H](CCCCN)C(=O)N[C@@H](C)B3O[C@@H]4C[C@@H]5C[C@@H](C5(C)C)[C@]4(C)O3)[C@@H](C)O)cn2)cc1 [Compound 270] (X30-[Dab]TAK-{boroAla((+)-pinanediol)}) | 0.25 (≈ 0.29 µM) | 0.25 (≈ 0.29 µM) | –
8 | CCCCCCCCc1ccc(C(=O)N[C@@H](CCCCN)C(=O)N[C@H](C(=O)N[C@@H](C)C(=O)N[C@@H](CCCCN)C(=O)N[C@@H](C)B2O[C@@H]3C[C@@H]4C[C@@H](C4(C)C)[C@]3(C)O2)[C@@H](C)O)c(C)c1 [Compound 274] (X26-KTAK-{boroAla((+)-pinanediol)}) | 0.5 (≈ 0.567 µM) | 0.13 (≈ 0.147 µM) | –
9 | CCCCCCCCCCNCCS(=O)(=O)N[C@@H](CCCCN)C(=O)N[C@H](C(=O)N[C@@H](C)C(=O)N[C@@H](CCCCN)C(=O)N[C@@H](C)C(=O)C(=O)O)[C@@H](C)O [Compound 251] ({Ethanesulfonyl(2-NHDecyl)}-KTAK-X22) | >64 | – | 0.5 (≈ 0.63 µM)
10 | CCCCCCCCCCNCCS(=O)(=O)N[C@@H](CCN)C(=O)N[C@H](C(=O)N[C@@H](C)C(=O)N[C@@H](CCCCN)C(=O)N[C@@H](C)C(=O)C(=O)OC)[C@@H](C)O [Compound 252] ({Ethanesulfonyl(2-NHDecyl)}-[Dab]TAK-AlaCOCOOMe) | 64 (≈ 82.2 µM) | – | 1 (≈ 1.28 µM)
11 | CCCCCCCCCCNCCC(=O)N[C@@H](CCCCN)C(=O)N[C@H](C(=O)N[C@@H](C)C(=O)N[C@@H](CCCCN)C(=O)N[C@@H](C)C(=O)C(=O)OC)[C@@H](C)O [Compound 248] ({Propanoyl(3-decylamino)}-KTAK-AlaCOCOOMe) | >64 | – | 1 (≈ 1.3 µM)
12 | CCCCCCCCCCNCCC(=O)N[C@@H](CN)C(=O)N[C@H](C(=O)N[C@@H](C)C(=O)N[C@@H](CCCCN)C(=O)N[C@@H](C)B(O)O)[C@@H](C)O [Compound 220] ({Propanoyl(3-decylamino)}-[Dap]TAK-boroAla) | 16 (≈ 23.3 µM) | – | 1 (≈ 1.46 µM)
13 | C[C@H](NC(=O)[C@@H](NC(=O)[C@H](CCN)NC(=O)c1ccc(-c2ccc(Cl)cc2)cc1)[C@@H](C)O)C(=O)N[C@@H](CCCCN)C(=O)N[C@@H](C)C(=O)C1CO1 (stereo partly shown) [Compound 216] ({Benzoyl(4-(4-Cl-Ph))}-[Dab]TAK-X7) | 16 (≈ 21.9 µM) | – | 1 (≈ 1.37 µM)
14 | CCCCCCCCCCNCCC(=O)N[C@@H](CCCCN)C(=O)N[C@@H](CCC(=O)O)C(=O)N[C@@H](C)C(=O)N[C@@H](CCCCN)C(=O)N[C@@H](C)B1O[C@@H]2C[C@@H]3C[C@@H](C3(C)C)[C@]2(C)O1 [Compound 223] ({Propanoyl(3-decylamino)}-KEAK-{boroAla((+)-pinanediol)}) | 64 (≈ 71.8 µM) | 4 (≈ 4.49 µM) | –
15 | CCCCCCCCCCNCCC(=O)N[C@@H](CN)C(=O)N[C@H](C(=O)N[C@@H](C)C(=O)N[C@@H](CC(N)=O)C(=O)N[C@@H](C)B(O)O)[C@@H](C)O [Compound 222] ({Propanoyl(3-decylamino)}-[Dap]TAN-boroAla) | 8 (≈ 11.9 µM) | – | 2 (≈ 2.97 µM)
16 | CCCCCCCCCCNCCC(=O)N[C@@H](CCCCN)C(=O)N[C@@H](C)C(=O)N[C@@H](CCCCN)C(=O)N[C@@H](C)B(O)O [Compound 269] | 11 (≈ 17.5 µM) | 0.35 (≈ 0.558 µM) | –
17 | CCCCCCN1CCNC(C(=O)N[C@@H](CCCCN)C(=O)N[C@H](C(=O)N[C@@H](C)C(=O)N[C@@H](CCCCN)C(=O)N[C@@H](C)B2O[C@@H]3C[C@@H]4C[C@@H](C4(C)C)[C@]3(C)O2)[C@@H](C)O)C1 (stereo partly drawn) [Compound 280] (H-[X32]KTAK-{boroAla((+)-pinanediol)}) | >64 | 64 (≈ 75.5 µM) | –
18 | CCCCc1ccc(-c2ccc(S(=O)(=O)N[C@@H](CCN)C(=O)N[C@H](C(=O)N[C@@H](C)C(=O)N[C@@H](CCCCN)C(=O)N[C@@H](C)B3O[C@@H]4C[C@@H]5C[C@@H](C5(C)C)[C@]4(C)O3)[C@@H](C)O)cn2)cc1 [Compound 232] (X18-[Dab]TAK-{boroAla((+)-pinanediol)}) | 11 (≈ 12.3 µM) | 1.5 (≈ 1.67 µM) | –
19 | CCCCCCCCCCNCCC(=O)N[C@@H](CCCCN)C(=O)N[C@H](C(=O)N[C@@H](C)C(=O)N[C@@H](CN)C(=O)N[C@@H](C)C(=O)C(=O)O)[C@@H](C)O [Compound 257] ({Propanoyl(3-decylamino)}-KTA[Dap]-X22) | >64 | – | 11 (≈ 15.4 µM)
20 | CCCCCCCCCCNCCS(=O)(=O)N[C@@H](CCN)C(=O)N[C@H](C(=O)N[C@@H](C)C(=O)N[C@@H](CCCCN)C(=O)N[C@@H](C)B1O[C@@H]2C[C@@H]3C[C@@H](C3(C)C)[C@]2(C)O1)[C@@H](C)O [Compound 239] ({Ethanesulfonyl(2-NHDecyl)}-[Dab]TAK-{boroAla((+)-pinanediol)}) | 4 (≈ 4.59 µM) | 0.25 (≈ 0.287 µM) | –
21 | CCCCCCCCCNCCCC(=O)N[C@@H](CCCCN)C(=O)N[C@H](C(=O)N[C@@H](C)C(=O)N[C@@H](CCCCN)C(=O)N[C@@H](C)B1O[C@@H]2C[C@@H]3C[C@@H](C3(C)C)[C@]2(C)O1)[C@@H](C)O [Compound 227] (X17-KTAK-{boroAla((+)-pinanediol)}) | 64 (≈ 74.2 µM) | – | 2 (≈ 2.32 µM)
22 | CCCCCCCCN1CCNC(C(=O)N[C@@H](CCCCN)C(=O)N[C@H](C(=O)N[C@@H](C)C(=O)N[C@@H](CCCCN)C(=O)N[C@@H](C)B2O[C@@H]3C[C@@H]4C[C@@H](C4(C)C)[C@]3(C)O2)[C@@H](C)O)C1 (stereo partly drawn) [Compound 279] (H-[X27]KTAK-{boroAla((+)-pinanediol)}) | >64 | 10 (≈ 11.4 µM) | –
23 | CC(NC(=O)[C@H](CCCCN)NC(=O)[C@H](C)NC(=O)[C@@H](NC(=O)[C@H](CCN)NC(=O)c1ccc(-c2ccc(Cl)cc2)cc1)[C@@H](C)O)C(=O)C(F)(F)C(=O)O (stereo partly shown) [Compound 215] ({Benzoyl(4-(4-Cl-Ph))}-[Dab]TAK-X20) | 64 (≈ 81.8 µM) | – | 6.7 (≈ 8.57 µM)
24 | CCCCc1ccc(-c2ncc(C(=O)N[C@@H](CCN)C(=O)N[C@@H](CCCCN)C(=O)N[C@@H](C)C(=O)N[C@@H](CCCCN)C(=O)N[C@@H](C)B3O[C@@H]4C[C@@H]5C[C@@H](C5(C)C)[C@]4(C)O3)cn2)cc1 [Compound 271] (X30-[Dab]KAK-{boroAla((+)-pinanediol)}) | 0.13 (≈ 0.146 µM) | 0.25 (≈ 0.281 µM) | –
25 | CCCCCCCCCCN(C)CCS(=O)(=O)N[C@@H](CCCCN)C(=O)N[C@H](C(=O)N[C@@H](C)C(=O)N[C@@H](CCCCN)C(=O)N[C@@H](C)B1O[C@@H]2C[C@@H]3C[C@@H](C3(C)C)[C@]2(C)O1)[C@@H](C)O [Compound 245] (X29-KTAK-{boroAla((+)-pinanediol)}) | 32 (≈ 35 µM) | 0.35 (≈ 0.383 µM) | –
26 | C[C@H](NC(=O)[C@H](CCCCN)NC(=O)[C@H](C)NC(=O)[C@@H](NC(=O)C(NC(=O)c1ccc(-c2ccc(Cl)cc2)cc1)C1CNC1)[C@@H](C)O)B1O[C@@H]2C[C@@H]3C[C@@H](C3(C)C)[C@]2(C)O1 (stereo partly shown) [Compound 281] | 8 (≈ 9.41 µM) | 4 (≈ 4.7 µM) | –
